± gives the expanded uncertainty stated by the source.
Key:
[1] = Liquid; for mass density: 298.15 K, 101.33 kPa; for Normal boiling temperature: Ebulliometric method (Recirculating still)
[2] = refractive index (Na D-line) (dimensionless); settings: 293.15 K; 101.33 kPa; Liquid; Standard Abbe refractometry

Structure (SMILES)	mass density [1] [kg/m3]	Normal boiling temperature [1] [°C]	refractive index [2]
CC(=O)CC(C)=O [2,4-pentanedione]	971.7 ± 1.4	140.5 ± 0.2	1.4489 ± 0.0005
CC(=O)O [acetic acid]	1046.9 ± 1.6	118.29 ± 0.2	1.3715 ± 0.0005
C1CCCCC1 [cyclohexane]	779.6 ± 7.6	80.8 ± 0.2	1.4259 ± 0.0005

Reference: the NIST ThermoML archive (doi:10.1021/je900669t)
